The values that follow come from patent US20150057246A1, “SILYL-CONTAINING HETEROCYCLIC COMPOUNDS AND METHODS OF USE THEREOF FOR THE TREATMENT OF VIRAL DISEASES” (priority 2012, published 2015).

Usually EC90 stands for the point of the concentration-response curve where the effect stands at 90%.

One test relates to HCV 1a Y93H replicon. As to the kind of experiment: Cell-based HCV replicon assay (TaqMan), 1a Y93H mutant replicon. To be noted: Hepatitis C virus, 72 h, read-out: 1a Y93H EC90, HCV 1a Y93H mutant replicon cells, replicon RNA by real time PCR, day 3; EC90 = concentration for ΔCT=3.2 over baseline. In outline: (§1)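 Replicon cells seeded at 5000 cells/well with compound as 10 serial 2-fold dilutions (top 250 μM to 1 μM), 0.5% DMSO, 5% FBS, 3 days. NS5B replicon RNA quantified by multiplex TaqMan RT-PCR against GAPDH. EC50 = concentration giving ΔCT=1 over baseline; EC90 = ΔCT=3.2, from sigmoid fit.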

A further test concerns HCV 2b replicon. Briefly: Cell-based HCV replicon assay (TaqMan), genotype 2b replicon. To be noted: Hepatitis C virus, 72 h, read-out: 2b EC90, HCV genotype 2b replicon cells, replicon RNA by real time PCR, day 3; EC90 = concentration for ΔCT=3.2 over baseline. In outline:
as §1

The subject of another test is HCV 1b replicon. As to the kind of experiment: Cell-based HCV replicon assay (TaqMan), genotype 1b replicon. To be noted: Hepatitis C virus, 72 h, HCV genotype 1b replicon cells, replicon RNA by real time PCR, day 3; EC90 = concentration for ΔCT=3.2 over baseline. On the procedure:
Measurement of inhibition by compounds of the present invention was performed using the HCV replicon system. Several different replicons encoding different HCV genotypes or mutations were used. In addition, potency measurements were made using different formats of the replicon assay, including different ways of measurements and different plating formats. See Jan M. Vrolijk et al., A replicons-based bioassay for the measurement of interferons in patients with chronic hepatitis C, 110 J. VIROLOGICAL METHODS 201 (2003); Steven S. Carroll et al., Inhibition of Hepatitis C Virus RNA Replication by 2′-Modified Nucleoside Analogs, 278(14) J. BIOLOGICAL CHEMISTRY 11979 (2003). However, the underlying principles are common to all of these determinations, and are outlined below.
TaqMan®-Based Assay Protocol:
Compounds of the present invention were assayed for cell-based anti-HCV activity using the following protocol. Replicon cells were seeded at 5000 cells/well in 96-well collagen I-coated Nunc plates in the presence of the test compound. Various concentrations of test compound, typically in 10 serial 2-fold dilutions, were added to the assay mixture, with the starting concentration ranging from 250 μM to 1 μM. The final concentration of DMSO was 0.5%, fetal bovine serum was 5%, in the assay media. Cells were harvested on day 3 by the addition of 1× cell lysis buffer (Ambion cat #8721). The replicon RNA level was measured using real time PCR (TaqMan® assay). The amplicon was located in 5B. The PCR primers were: 5B.2F, ATGGACAGGCGCCCTGA (SEQ. ID NO. 1); 5B.2R, […] (SEQ. ID NO. 2); the probe sequence was FAM-labeled CACGCCATGCGCTGCGG (SEQ. ID NO. 3). GAPDH RNA was used as endogenous control and was amplified in the same reaction as NS5B (multiplex PCR) using primers and VIC-labeled probe recommended by the manufacturer (PE Applied Biosystem). The real-time […] reactions were run on ABI PRISM 7900HT Sequence Detection System using the following program: 48° C. for 30 minutes, 95° C. for 10 minutes, 40 cycles of 95° C. for 15 sec, 60° C. for 1 minute. The ΔCT values (CT5B-CTGAPDH) were plotted against the concentration of test compound and fitted to the sigmoid dose-response model using XLfit4 (MDL). EC50 was defined as the concentration of inhibitor necessary to achieve ΔCT=1 over the projected baseline; EC90 the concentration necessary to achieve ΔCT=3.2 over the baseline. Alternatively, to quantitate the absolute amount of replicon RNA, a standard curve was established by including serially diluted T7 transcripts of replicon RNA in the Taqman assay. All TaqMan® reagents were from PE Applied Biosystems. Such an assay procedure was described in detail in e.g. Malcolm et al., Antimicrobial Agents and Chemotherapy 50: 1013-1020 (2006).
HCV replicon EC50 assay data for various replicons and mutants was calculated for selected compounds of the present invention using this method and is provided in the tables above herein.
On the technique in general: In antiviral work, replicon cells carry a viral genome segment that copies itself.

The test system of another test is HCV 1a replicon. As to the kind of experiment: Cell-based HCV replicon assay (TaqMan), genotype 1a replicon. The settings on record: Hepatitis C virus, 72 h, HCV genotype 1a replicon cells, replicon RNA by real time PCR, day 3; EC90 = concentration for ΔCT=3.2 over baseline. In outline: as §1

With `COC(=O)N[C@H](C(=O)N1CCC[C@H]1c1ncc(-c2ccc(-c3ccc4c(ccc5nc([C@@H]6C[Si](C)(C)CN6C(=O)[C@@H](NC(=O)OC)C6CCOCC6)[nH]c54)c3)cc2)[nH]1)C1CCOCC1` [Compound 18], the EC90 in the test on HCV 1a Y93H replicon was > 100 nM; with HCV 2b replicon, 2.8 nM; with HCV 1b replicon it was 0.014 nM; with HCV 1a replicon it was 0.023 nM.
For `COC(=O)N[C@H](C(=O)N1C[Si](C)(C)C[C@H]1c1nc2ccc3cc(-c4ccc(-c5nc(Cl)c([C@@H]6C[C@H]7C[C@H]7N6C(=O)[C@@H](NC(=O)OC)C(C)C)[nH]5)cc4)ccc3c2[nH]1)C(C)C` [Compound 108], in that order: 151 nM, 543 nM, 0.02 nM and 0.04 nM.
The matching figures for `COC(=O)N[C@H](C(=O)N1CCC[C@H]1c1ncc(-c2ccc(-c3ccc4c(ccc5nc([C@@H]6C[Si](C)(C)CN6C(=O)C6(NC(=O)OC)CCC6)[nH]c54)c3)cc2)[nH]1)C(C)C` [Compound 71]: 288 nM, 205 nM, 0.03 nM and 10 nM.
The matching figures for `COC(=O)N[C@@H](CN(C)C)C(=O)N1C[Si](C)(C)C[C@H]1c1nc2ccc3cc(-c4ccc(-c5cnc([C@@H]6CCCN6C(=O)[C@@H](NC(=O)OC)C(C)C)[nH]5)cc4)ccc3c2[nH]1` [Compound 73]: > 1000 nM, 110 nM, 0.05 nM and 0.19 nM.
Take `COC(=O)NC(C(=O)N1C[Si](C)(C)C[C@H]1c1nc2ccc3cc(-c4ccc5cc(-c6cnc([C@@H]7CCCN7C(=O)[C@H](NC(=O)OC)C(C)C)[nH]6)ccc5c4)ccc3c2[nH]1)[C@@H](C)OC` (stereo partly shown) [Compound 117]: the EC90 in the test on HCV 1a Y93H replicon was > 100 nM; in the test with HCV 2b replicon it was > 100 nM; with HCV 1b replicon, > 1 nM; with HCV 1a replicon, 0.039 nM.
For the compound `COC(=O)N[C@H](C(=O)N1CCC[C@H]1c1ncc(-c2ccc(-c3ccc4c(ccc5nc([C@@H]6C[Si](C)(C)CN6C(=O)[C@H](NC(=O)OC)C(C)(C)OC)[nH]c54)c3)cc2)[nH]1)C(C)C` [Compound 74], the EC90 in the test with HCV 1a Y93H replicon is > 1000 nM; in the test with HCV 2b replicon, 380 nM; in the test on HCV 1b replicon, 0.03 nM; in the test with HCV 1a replicon, 1.3 nM.
Take `COC(=O)N[C@H](C(=O)N1CCC[C@H]1c1ncc(-c2ccc(-c3ccc4c(ccc5nc([C@@H]6C[Si](C)(C)CN6C(=O)[C@@H](NC(=O)OC)[C@H](O)C(C)C)[nH]c54)c3)cc2)[nH]1)C(C)C` [Compound 68]: the EC90 was > 1000 nM with HCV 1a Y93H replicon, 143 nM in the test on HCV 2b replicon, 0.02 nM with HCV 1b replicon and 0.21 nM in the test on HCV 1a replicon.
On to `COC(=O)NC(Cc1cccs1)C(=O)N1C[Si](C)(C)C[C@H]1c1nc2ccc3cc(-c4ccc(-c5cnc([C@@H]6CCCN6C(=O)[C@@H](NC(=O)OC)C(C)C)[nH]5)cc4)ccc3c2[nH]1` (stereo partly shown) [Compound 75], for which the EC90 was > 1000 nM with HCV 1a Y93H replicon, 425 nM in the test on HCV 2b replicon, 0.04 nM in the test on HCV 1b replicon and 3.4 nM in the test with HCV 1a replicon.
The matching figures for `COC(=O)N[C@H](C(=O)N1CCC[C@H]1c1ncc(-c2ccc3cc(-c4ccc5c(ccc6nc([C@@H]7C[Si](C)(C)CN7C(=O)[C@@H](NC(=O)OC)C(C)C)[nH]c65)c4)ccc3c2)[nH]1)C(C)C` [Compound 112]: > 100 nM, > 100 nM, > 1 nM and 0.046 nM.
Take `CCN(CC)[C@H](C(=O)N1C[Si](C)(C)C[C@H]1c1nc2ccc3cc(-c4ccc(-c5cnc([C@@H]6CCCN6C(=O)[C@@H](NC(=O)OC)C(C)C)[nH]5)cc4)ccc3c2[nH]1)c1ccccc1` [Compound 78]: the EC90 came out at 514 nM in the test with HCV 1a Y93H replicon, 6.5 nM with HCV 2b replicon, 0.03 nM in the test on HCV 1b replicon and 0.14 nM with HCV 1a replicon.
The matching figures for `COC(=O)N[C@@H](CC(C)(C)C)C(=O)N1C[Si](C)(C)C[C@H]1c1nc2ccc3cc(-c4ccc(-c5cnc([C@@H]6CCCN6C(=O)[C@@H](NC(=O)OC)C(C)C)[nH]5)cc4)ccc3c2[nH]1` [Compound 72]: 130 nM, 114 nM, 0.02 nM and 0.18 nM.
`COC(=O)N[C@H](C(=O)N1CCC[C@H]1c1ncc(-c2ccc(-c3ccc4c(ccc5nc([C@@H]6C[Si](C)(C)CN6C(=O)[C@@H](NC(=O)OC)C6CC6)[nH]c54)c3)cc2)[nH]1)C(C)C` [Compound 70]: the EC90 with HCV 1a Y93H replicon is > 1000 nM; in the test on HCV 2b replicon, 162 nM; with HCV 1b replicon, 0.02 nM; in the test with HCV 1a replicon, 0.35 nM.
The matching figures for `COC(=O)N[C@H](C(=O)N1C[Si](C)(C)C[C@@H]1c1nc2ccc3cc(-c4ccc5cc(-c6cnc([C@H]7CCCN7C(=O)[C@H](NC(=O)OC)C(C)C)[nH]6)ccc5c4)ccc3c2[nH]1)C1CCOCC1` [Compound 118]: > 100 nM, > 100 nM, > 1 nM and 0.023 nM.
The matching figures for `CC[C@H](C)[C@H](NC(=O)OC)C(=O)N1CCC[C@H]1c1ncc(-c2ccc(-c3ccc4c(ccc5nc([C@@H]6C[Si](C)(C)CN6C(=O)[C@@H](NC(=O)OC)[C@@H](C)CC)[nH]c54)c3)cc2)[nH]1` [Compound 22]: 746 nM, 250 nM, 0.03 nM and 0.35 nM.
For `COC(=O)N[C@H](C(=O)N1CCC[C@H]1c1ncc(-c2ccc3cc(-c4ccc5c(ccc6nc([C@@H]7C[Si](C)(C)CN7C(=O)[C@@H](NC(=O)OC)C7CC7)[nH]c65)c4)ccc3c2)[nH]1)C1CC1` [Compound 114], in that order: > 100 nM, > 100 nM, > 1 nM and 0.06 nM.
Regarding `COC(=O)N[C@H](C(=O)N1C[Si](C)(C)C[C@H]1c1nc(Cl)c(-c2ccc(-c3ccc4c(ccc5nc([C@@H]6CCCN6C(=O)[C@@H](NC(=O)OC)C(C)C)[nH]c54)c3)cc2)[nH]1)C(C)C` [Compound 96], the EC90 was determined as 368 nM in the test with HCV 1a Y93H replicon, 263 nM with HCV 2b replicon, 0.69 nM in the test on HCV 1b replicon and 0.24 nM with HCV 1a replicon.
